Reference: the supplement of paper PMC10627819

Legend:
Assay in all cases: fitness (endpoint OD595 vs no drug) (fraction); higher = more growth
S. aureus Newman = tested on: S. aureus Newman
How it was run: (§1)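 Fitness is computed from the optical density at which cultures reach stationary phase, divided by the robust mean of no-drug control wells. Any value above 1 is set to 1. Cultures started at OD595 0.01 in 384-well plates with TSB, LB Lennox or CY at 37 °C, and OD595 was read every 30 min for 14 h against a first-reading background.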

S. pneumoniae D39V = tested on: S. pneumoniae D39V
How it was run: as §1

B. subtilis 168 = tested on: B. subtilis 168
How it was run: as §1
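Note: OD595 on entry to stationary phase over no-drug wells; at most 1.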

O=C(O)c1cn(C2CC2)c2cc(N3CCNCC3)c(F)cc2c1=O [Ciprofloxacin] + CO[C@@]12[C@H](COC(N)=O)C3=C(C(=O)C(C)=C(N)C3=O)N1C[C@@H]1N[C@@H]12 [Mitomycin C]
Settings | fitness
S. aureus Newman, first compound 0.0375 µg/mL, partner 0.0156 µg/mL | 0.609
S. aureus Newman, first compound 0.0375 µg/mL, partner 0.0312 µg/mL | 0.557
S. aureus Newman, first compound 0.0375 µg/mL, partner 0.0625 µg/mL | 0.366
S. aureus Newman, first compound 0.075 µg/mL, partner 0.0156 µg/mL | 0.573
S. aureus Newman, first compound 0.075 µg/mL, partner 0.0312 µg/mL | 0.497
S. aureus Newman, first compound 0.075 µg/mL, partner 0.0625 µg/mL | 0.219
S. aureus Newman, first compound 0.15 µg/mL, partner 0.0156 µg/mL | 0.152
S. aureus Newman, first compound 0.15 µg/mL, partner 0.0312 µg/mL | 0.0809
S. aureus Newman, first compound 0.15 µg/mL, partner 0.0625 µg/mL | 0.0294
S. pneumoniae D39V, first compound 0.125 µg/mL, partner 0.001075 µg/mL | 0.917
S. pneumoniae D39V, first compound 0.125 µg/mL, partner 0.002 µg/mL | 0.75
S. pneumoniae D39V, first compound 0.125 µg/mL, partner 0.00215 µg/mL | 0.892
S. pneumoniae D39V, first compound 0.125 µg/mL, partner 0.004 µg/mL | 0.632
S. pneumoniae D39V, first compound 0.125 µg/mL, partner 0.0043 µg/mL | 0.766
S. pneumoniae D39V, first compound 0.125 µg/mL, partner 0.008 µg/mL | 0.322
S. pneumoniae D39V, first compound 0.25 µg/mL, partner 0.001075 µg/mL | 0.861
S. pneumoniae D39V, first compound 0.25 µg/mL, partner 0.00215 µg/mL | 0.822
S. pneumoniae D39V, first compound 0.25 µg/mL, partner 0.0043 µg/mL | 0.736
S. pneumoniae D39V, first compound 0.5 µg/mL, partner 0.001075 µg/mL | 0.658
S. pneumoniae D39V, first compound 0.5 µg/mL, partner 0.00215 µg/mL | 0.643
S. pneumoniae D39V, first compound 0.5 µg/mL, partner 0.0043 µg/mL | 0.523
S. pneumoniae D39V, first compound 0.5 µg/mL, partner 0.008 µg/mL | 0.188

S. pneumoniae D39V, first compound 0.25 µg/mL, one replicate
Settings | fitness
partner 0.002 µg/mL | 0.541
partner 0.004 µg/mL | 0.394
partner 0.008 µg/mL | 0.154

O=C(O)c1cn(C2CC2)c2cc(N3CCNCC3)c(F)cc2c1=O [Ciprofloxacin] + N[C@@H]1CONC1=O [Cycloserine D]
fitness
Settings | partner 0.125 µg/mL | partner 0.25 µg/mL | partner 0.375 µg/mL | partner 0.5 µg/mL | partner 0.75 µg/mL | partner 1.5 µg/mL
B. subtilis 168, first compound 0.0098 µg/mL | 0.891 | 0.85 | – | 0.901 | – | –
B. subtilis 168, first compound 0.0195 µg/mL | 0.684 | 0.653 | – | 0.679 | – | –
B. subtilis 168, first compound 0.039 µg/mL | 0.144 | 0.0682 | – | 0.12 | – | –
S. aureus Newman, first compound 0.0375 µg/mL | – | – | 0.7 | – | 0.682 | 0.689
S. aureus Newman, first compound 0.15 µg/mL | – | – | 0.0749 | – | 0.0416 | 0.047

O=C(O)c1cn(C2CC2)c2cc(N3CCNCC3)c(F)cc2c1=O [Ciprofloxacin] + O=C(O)[C@H]1/C(=C/CO)O[C@@H]2CC(=O)N21 [Clavulanic acid]
fitness, S. aureus Newman, one replicate
Settings | first compound 0.078 µg/mL | first compound 0.156 µg/mL | first compound 0.312 µg/mL
partner 0.03125 µg/mL | 0.709 | 0.283 | 0.143
partner 0.0625 µg/mL | 0.695 | 0.216 | 0.0875
partner 0.125 µg/mL | 0.699 | 0.211 | 0.116

Settings | fitness
B. subtilis 168, first compound 0.0098 µg/mL, partner 1.5 µg/mL | 0.912
B. subtilis 168, first compound 0.0098 µg/mL, partner 3 µg/mL | 0.85
B. subtilis 168, first compound 0.0098 µg/mL, partner 6 µg/mL | 0.717
B. subtilis 168, first compound 0.0195 µg/mL, partner 1.5 µg/mL | 0.758
B. subtilis 168, first compound 0.0195 µg/mL, partner 3 µg/mL | 0.643
B. subtilis 168, first compound 0.039 µg/mL, partner 1.5 µg/mL | 0.151
B. subtilis 168, first compound 0.039 µg/mL, partner 3 µg/mL | 0.0402
B. subtilis 168, first compound 0.039 µg/mL, partner 6 µg/mL | 0.0214
S. pneumoniae D39V, first compound 0.125 µg/mL, partner 0.5 µg/mL | 0.957
S. pneumoniae D39V, first compound 0.125 µg/mL, partner 1 µg/mL | 0.913
S. pneumoniae D39V, first compound 0.125 µg/mL, partner 2 µg/mL | 0.796
S. pneumoniae D39V, first compound 0.25 µg/mL, partner 0.5 µg/mL | 0.806
S. pneumoniae D39V, first compound 0.25 µg/mL, partner 1 µg/mL | 0.788

COc1cccc2c1C(=O)c1c(O)c3c(c(O)c1C2=O)C[C@@](O)(C(=O)CO)C[C@@H]3O[C@H]1C[C@H](N)[C@H](O)[C@H](C)O1 [Doxorubicin] + CC1=C(C(=O)O)N2C(=O)[C@@H](NC(=O)[C@H](N)c3ccccc3)[C@H]2SC1 [Cephalexin]
fitness
Settings | first compound 0.25 µg/mL | first compound 0.5 µg/mL | first compound 0.625 µg/mL | first compound 1 µg/mL | first compound 1.25 µg/mL | first compound 2.5 µg/mL
B. subtilis 168, partner 0.125 µg/mL | – | – | 0.917 | – | 0.897 | 0.733
B. subtilis 168, partner 0.25 µg/mL | – | – | 0.964 | – | 0.89 | 0.68
B. subtilis 168, partner 0.5 µg/mL | – | – | 0.969 | – | 0.941 | 0.655
S. aureus Newman, partner 0.25 µg/mL | – | – | 0.771 | – | 0.824 | 0.744
S. aureus Newman, partner 0.5 µg/mL | – | – | 0.844 | – | 0.834 | 0.758
S. aureus Newman, partner 1 µg/mL | – | – | 0.823 | – | 0.861 | 0.83
S. pneumoniae D39V, partner 2 µg/mL | 0.0496 | 0.0845 | – | 0.105 | – | –
S. pneumoniae D39V, partner 4 µg/mL | 0.0361 | 0.0467 | – | 0.0242 | – | –

fitness, one replicate
Settings | first compound 0.25 µg/mL | first compound 0.5 µg/mL | first compound 0.625 µg/mL | first compound 1 µg/mL | first compound 1.25 µg/mL | first compound 2.5 µg/mL
B. subtilis 168, partner 1 µg/mL | – | – | ≥ 1 | – | 0.98 | 0.703
S. pneumoniae D39V, partner 0.125 µg/mL | 0.866 | 0.98 | – | 0.905 | – | –
S. pneumoniae D39V, partner 0.25 µg/mL | 0.862 | 0.876 | – | 0.861 | – | –
S. pneumoniae D39V, partner 0.5 µg/mL | 0.878 | 0.872 | – | 0.898 | – | –

C[C@@H]1O[C@@H]1P(=O)(O)O [Fosfomycin] + CC1=C(C(=O)O)N2C(=O)[C@@H](NC(=O)[C@H](N)c3ccccc3)[C@H]2SC1 [Cephalexin]
Settings | fitness
B. subtilis 168, first compound 1.562 µg/mL, partner 0.125 µg/mL | 0.66
B. subtilis 168, first compound 1.562 µg/mL, partner 0.25 µg/mL | 0.776
B. subtilis 168, first compound 1.562 µg/mL, partner 0.5 µg/mL | 0.774
B. subtilis 168, first compound 3.124 µg/mL, partner 0.125 µg/mL | 0.573
B. subtilis 168, first compound 3.124 µg/mL, partner 0.25 µg/mL | 0.656
B. subtilis 168, first compound 3.124 µg/mL, partner 0.5 µg/mL | 0.611
B. subtilis 168, first compound 6.248 µg/mL, partner 0.125 µg/mL | 0.404
B. subtilis 168, first compound 6.248 µg/mL, partner 0.25 µg/mL | 0.396
B. subtilis 168, first compound 6.248 µg/mL, partner 0.5 µg/mL | 0.373
S. aureus Newman, first compound 0.781 µg/mL, partner 0.25 µg/mL | 0.677
S. aureus Newman, first compound 0.781 µg/mL, partner 0.5 µg/mL | 0.662
S. aureus Newman, first compound 0.781 µg/mL, partner 1 µg/mL | 0.685
S. aureus Newman, first compound 1.562 µg/mL, partner 0.25 µg/mL | 0.604
S. aureus Newman, first compound 1.562 µg/mL, partner 0.5 µg/mL | 0.561
S. aureus Newman, first compound 1.562 µg/mL, partner 1 µg/mL | 0.616
S. aureus Newman, first compound 3.124 µg/mL, partner 0.25 µg/mL | 0.309
S. aureus Newman, first compound 3.124 µg/mL, partner 0.5 µg/mL | 0.286
S. aureus Newman, first compound 3.124 µg/mL, partner 1 µg/mL | 0.284
S. pneumoniae D39V, first compound 1.25 µg/mL, partner 1 µg/mL | 0.768
S. pneumoniae D39V, first compound 1.25 µg/mL, partner 2 µg/mL | 0.212
S. pneumoniae D39V, first compound 1.25 µg/mL, partner 4 µg/mL | 0.0339
S. pneumoniae D39V, first compound 2.5 µg/mL, partner 2 µg/mL | 0.191
S. pneumoniae D39V, first compound 2.5 µg/mL, partner 4 µg/mL | 0.0402
S. pneumoniae D39V, first compound 5 µg/mL, partner 2 µg/mL | 0.0752
S. pneumoniae D39V, first compound 5 µg/mL, partner 4 µg/mL | 0.0499

fitness, one replicate
Settings | first compound 1.25 µg/mL | first compound 1.562 µg/mL | first compound 2.5 µg/mL | first compound 3.124 µg/mL | first compound 5 µg/mL | first compound 6.248 µg/mL
B. subtilis 168, partner 1 µg/mL | – | 0.797 | – | 0.673 | – | 0.542
S. pneumoniae D39V, partner 0.125 µg/mL | 0.937 | – | 0.879 | – | 0.713 | –
S. pneumoniae D39V, partner 0.25 µg/mL | 0.933 | – | 0.847 | – | 0.762 | –
S. pneumoniae D39V, partner 0.5 µg/mL | 0.899 | – | 0.847 | – | 0.751 | –
